Laboratory results from US9890407B2, “Method for synthesizing cellulose in vitro” (University of Virginia Patent Foundation, priority 2013, dated 2018).

Experiments:
[1] = biological target: BcsA-Arg580Ala complex; test: Isothermal titration calorimetry, c-di-GMP into BcsA-R580A complex; format: binding, Rhodobacter sphaeroides; settings: BcsA-R580A in 1 mM LFCE14, 25° C.; read-out: Kd of c-di-GMP (ITC)
Description: (§1) FIG. 23A-23B (also referred to as Example 2, Supplementary FIG. 5): Cellulose synthesis activity of BcsA mutants and c-di-GMP binding. (FIG. 23A) Cellulose synthesis assays were performed in inverted membrane vesicles and proteoliposomes as described in the Experimental Procedures. The amount of ^3H-glucose-labeled cellulose produced by each mutant is quantified and graphed. 1 μl of IMV's were used for each mutant. For PL assays, the protein concentrations were matched based on UV absorbance and SDS-PAGE followed by Coomassie staining. The apparent lower activity of the R580A mutant may be due to differences in the relative orientation of the enzyme in the PLs or its overall stability. +/−: Experiments performed in the presence and absence of 30 μM c-di-GMP. All data represent the means±SD for 3 technical replicates. (FIG. 23B) Binding of c-di-GMP to the BcsA-R580A mutant. The ability of the R580A mutant to bind c-di-GMP was assessed using ITC.
(§2) The protein was purified in 1 mM LFCE14 as described above. Measurements were carried out at 25° C. in a MicroCal iTC200 system (GE Healthcare) with 250 μl of BcsA-B in the cell at 9.3 μM for WT and 11 μM for the BcsA-Arg580Ala complex and 400 μM c-di-GMP in the syringe. An initial 0.5 μl injection was followed by 39 1 μl injections spaced 180 s apart with stirring at 700 rpm. The data were fit using Origin 7.0 as provided by the manufacturer.

[2] = biological target: T1, Rhodobacter sphaeroides BcsA-B complex, wild type (WT), BcsA SEQ ID NO: 1, BcsB SEQ ID NO: 3 (Cereibacter sphaeroides, UniProt Q3J125); test: Isothermal titration calorimetry, c-di-GMP binding to wild type BcsA-B; settings: ITC, 1 mM LFCE14, 25° C.
T1 construct: E. coli; purified in LFCE14 detergent for ITC
T1 sequence (Q3J125 1-788): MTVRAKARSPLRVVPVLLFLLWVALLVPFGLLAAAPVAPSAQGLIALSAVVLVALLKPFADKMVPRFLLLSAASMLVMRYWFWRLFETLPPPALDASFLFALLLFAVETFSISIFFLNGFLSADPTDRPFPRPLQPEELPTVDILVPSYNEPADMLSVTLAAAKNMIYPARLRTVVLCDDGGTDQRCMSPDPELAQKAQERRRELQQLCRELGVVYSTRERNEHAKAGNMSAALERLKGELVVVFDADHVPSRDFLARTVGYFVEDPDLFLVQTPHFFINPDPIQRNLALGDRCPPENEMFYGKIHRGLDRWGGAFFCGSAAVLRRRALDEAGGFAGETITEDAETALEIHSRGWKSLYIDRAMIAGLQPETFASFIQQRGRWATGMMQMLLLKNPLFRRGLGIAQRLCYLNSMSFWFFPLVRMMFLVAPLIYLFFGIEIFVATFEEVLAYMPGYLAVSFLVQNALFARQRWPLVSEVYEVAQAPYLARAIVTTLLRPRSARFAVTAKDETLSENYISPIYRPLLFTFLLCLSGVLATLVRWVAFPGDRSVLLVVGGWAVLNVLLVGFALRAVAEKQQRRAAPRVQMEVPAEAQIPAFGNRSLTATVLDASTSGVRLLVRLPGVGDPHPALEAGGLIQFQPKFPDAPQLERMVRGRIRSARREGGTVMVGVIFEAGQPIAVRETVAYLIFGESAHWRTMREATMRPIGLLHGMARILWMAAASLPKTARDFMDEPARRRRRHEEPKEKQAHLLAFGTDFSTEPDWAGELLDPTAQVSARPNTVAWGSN
T1 sequence (Q3J126 21-725 partner): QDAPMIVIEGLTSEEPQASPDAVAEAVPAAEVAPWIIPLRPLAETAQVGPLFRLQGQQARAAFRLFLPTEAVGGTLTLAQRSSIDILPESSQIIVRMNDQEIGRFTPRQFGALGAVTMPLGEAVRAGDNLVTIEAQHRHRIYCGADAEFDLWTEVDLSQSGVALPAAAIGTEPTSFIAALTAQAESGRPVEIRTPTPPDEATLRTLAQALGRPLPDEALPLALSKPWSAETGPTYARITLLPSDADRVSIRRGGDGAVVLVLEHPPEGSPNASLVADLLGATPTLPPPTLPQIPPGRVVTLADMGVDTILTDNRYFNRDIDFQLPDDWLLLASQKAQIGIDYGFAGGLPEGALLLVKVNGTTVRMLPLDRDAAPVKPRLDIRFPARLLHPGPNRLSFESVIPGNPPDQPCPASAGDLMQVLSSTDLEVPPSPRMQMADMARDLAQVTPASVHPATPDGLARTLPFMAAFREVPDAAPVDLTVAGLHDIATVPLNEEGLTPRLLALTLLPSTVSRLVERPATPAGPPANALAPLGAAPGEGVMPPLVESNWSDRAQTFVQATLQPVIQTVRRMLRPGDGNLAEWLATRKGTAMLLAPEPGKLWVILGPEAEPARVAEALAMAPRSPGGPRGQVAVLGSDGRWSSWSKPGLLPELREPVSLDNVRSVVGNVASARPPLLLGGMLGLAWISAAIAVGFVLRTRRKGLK
Description: as §1, §2

[3] = biological target: T2, Rhodobacter sphaeroides BcsA-B complex, BcsA variant R580A (Arg580Ala; parent BcsA SEQ ID NO: 1), BcsB SEQ ID NO: 3 (Cereibacter sphaeroides, UniProt Q3J125, R580A); test: Isothermal titration calorimetry, c-di-GMP binding to the BcsA-R580A mutant
T2 sequence (Q3J125 entry or part of it R580A, one chain of several): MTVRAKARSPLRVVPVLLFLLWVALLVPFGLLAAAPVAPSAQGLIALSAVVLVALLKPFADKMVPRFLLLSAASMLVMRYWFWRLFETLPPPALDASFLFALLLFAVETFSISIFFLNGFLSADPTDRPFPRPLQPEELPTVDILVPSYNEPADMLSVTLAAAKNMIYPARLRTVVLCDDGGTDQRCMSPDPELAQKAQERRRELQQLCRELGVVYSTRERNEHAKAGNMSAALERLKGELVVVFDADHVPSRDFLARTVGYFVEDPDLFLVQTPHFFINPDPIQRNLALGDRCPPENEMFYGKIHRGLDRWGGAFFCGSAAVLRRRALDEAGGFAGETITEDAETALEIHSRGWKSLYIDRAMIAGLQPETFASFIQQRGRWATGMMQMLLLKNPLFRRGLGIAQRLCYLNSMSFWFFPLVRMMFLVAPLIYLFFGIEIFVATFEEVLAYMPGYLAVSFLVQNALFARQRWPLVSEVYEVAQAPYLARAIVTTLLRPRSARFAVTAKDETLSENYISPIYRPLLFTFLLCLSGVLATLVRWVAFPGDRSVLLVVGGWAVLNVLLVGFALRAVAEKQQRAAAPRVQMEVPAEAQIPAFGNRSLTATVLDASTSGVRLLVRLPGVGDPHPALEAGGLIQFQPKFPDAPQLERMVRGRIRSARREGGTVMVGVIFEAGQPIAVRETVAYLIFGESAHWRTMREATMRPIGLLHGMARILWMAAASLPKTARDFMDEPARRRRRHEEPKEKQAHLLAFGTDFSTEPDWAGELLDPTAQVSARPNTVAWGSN
Description: as §1, §2

[4] = biological target: T3, Rhodobacter sphaeroides BcsA-B complex (cellulose synthase), wild type, BcsA SEQ ID NO: 1, BcsB SEQ ID NO: 3 (Cereibacter sphaeroides, UniProt Q3J125); test: Enzyme-coupled (PK/LDH, NADH oxidation) cellulose synthase assay, ND-reconstituted BcsA-B; format: biochemical; settings: titration of UDP-Glc at increasing c-di-GMP concentrations
T3 construct: pETDuet, E. coli C43; purified, reconstituted in nanodiscs, proteoliposomes or detergent
T3 sequence (Q3J125 1-788): T1 sequence (Q3J125 1-788)
T3 sequence (Q3J126 21-725 partner): T1 sequence (Q3J126 21-725 partner)

[5] = biological target: T2, Rhodobacter sphaeroides BcsA-B complex, BcsA variant R580A (Arg580Ala; parent BcsA SEQ ID NO: 1), BcsB SEQ ID NO: 3; format: biochemical; settings: c-di-GMP more than 50-fold above its dissociation constant

`Nc1nc2c(ncn2[C@@H]2O[C@@H]3COP(=O)(O)O[C@H]4[C@@H](O)[C@H](n5cnc6c(=O)[nH]c(N)nc65)O[C@@H]4COP(=O)(O)O[C@H]3[C@H]2O)c(=O)[nH]1` [c-di-GMP, cyclic dimeric guanosine monophosphate] showed a Kd [1] of 1.6 µM, a Kd [2] of 0.4 µM and a Kd [3] of 1.6 µM. The “stoichiometry of c-di-GMP binding” value ([3]; ITC, 1 mM LFCE14, 25° C.) was about 0.5, the “effect of c-di-GMP on BcsA's apparent affinity for UDP-Glc” value [4] was “does not alter BcsA's apparent affinity for UDP-Glc” and the “stimulation of cellulose biosynthesis by c-di-GMP” value [5] was “no further stimulation”.
